In assay [1] the test system is Staphylococcus aureus. In words: Antibacterial activity against Staphylococcus aureus ATCC 25923 after 24 hrs by micro broth dilution assay. The class given is functional. Conditions: ATCC 25923, 24 h. (In general: Broth dilution looks for growth in wells or tubes with falling amounts of substance.)
The subject of assay [2] is Staphylococcus aureus. In words: Antibacterial activity against methicillin-resistant Staphylococcus aureus N315 after 24 hrs by micro broth dilution assay. Conditions: N315, 24 h. The class given is functional.
The next assay deals with Bacillus subtilis. The experiment in a line: Antibacterial activity against Bacillus subtilis after 24 hrs by micro broth dilution assay. The format is functional.
The test system of a further assay is Micrococcus luteus. The experiment in a line: Antibacterial activity against Micrococcus luteus ATCC4698 after 24 hrs by micro broth dilution assay. The class given is functional. As to conditions: ATCC4698, 24 h.
For the next assay, the system named is Bacillus. The experiment in a line: Antibacterial activity against Bacillus proteus ATCC 13315 after 24 hrs by micro broth dilution assay. The class given is functional. Conditions: ATCC 13315, 24 h.
For assay [3], the system named is Escherichia coli. In words: Antibacterial activity against Escherichia coli DH52 after 24 hrs by micro broth dilution assay. The class given is functional. Conditions: DH52, 24 h.
Assay [4] has as its system Pseudomonas aeruginosa. In words: Antibacterial activity against Pseudomonas aeruginosa after 24 hrs by micro broth dilution assay. The class given is functional.
The next assay has as its system Salmonella typhi. The experiment in a line: Antibacterial activity against Bacillus typhi after 24 hrs by micro broth dilution assay. The class given is functional, Salmonella enterica subsp. enterica serovar Typhi. As to conditions: Salmonella enterica.
In assay [5] the test system is Escherichia coli. The experiment in a line: Antibacterial activity against Escherichia coli JM109 after 24 hrs by micro broth dilution assay. The format is functional. As to conditions: JM109, 24 h.
In a further assay the test system is Shigella dysenteriae. In words: Antibacterial activity against Shigella dysenteriae after 24 hrs by micro broth dilution assay. The class given is functional.
The test system of a further assay is Candida albicans. The experiment in a line: Antifungal against Candida albicans ATCC 76615 after 24 hrs by two fold serial dilution method. The class given is functional. Conditions: ATCC 76615, 24 h.
For the next assay, the system named is Pichia norvegensis. In words: Antifungal against Candida mycoderma after 24 hrs by two fold serial dilution method. The class given is functional.
The test system of another assay is Cyberlindnera jadinii. In words: Antifungal against Candida utilis after 24 hrs by two fold serial dilution method. The class given is functional. Conditions: Williopsis jadinii.
The subject of another assay is Saccharomyces cerevisiae. The experiment in a line: Antifungal against Saccharomyces cerevisiae after 24 hrs by two fold serial dilution method. The class given is functional.
Another assay has as its system Aspergillus flavus. The experiment in a line: Antifungal against Aspergillus flavus after 24 hrs by two fold serial dilution method. The format is functional.
The subject of assay [6] is Staphylococcus aureus. In words: Ratio of MBC for Staphylococcus aureus ATCC 25923 to MIC for Staphylococcus aureus ATCC 25923. The format is functional.
Assay [7] deals with Staphylococcus aureus. In words: Ratio of MBC for methicillin-resistant Staphylococcus aureus N315 to MIC for methicillin-resistant Staphylococcus aureus N315. The format is functional.
Assay [8] has as its system Pseudomonas aeruginosa. The experiment in a line: Ratio of MBC for Pseudomonas aeruginosa to MIC for Pseudomonas aeruginosa. The format is functional.
For assay [9], the system named is Staphylococcus aureus. In words: Antibacterial activity against Staphylococcus aureus ATCC 25923 incubated for 24 hrs followed by plating onto tryptic soy agar medium and measured after 24 hrs. As to conditions: ATCC 25923, 24 h. The class given is functional.
In assay [10] the test system is Staphylococcus aureus. In words: Antibacterial activity against methicillin-resistant Staphylococcus aureus N315 incubated for 24 hrs followed by plating onto tryptic soy agar medium and measured after 24 hrs. Conditions: N315, 24 h. The class given is functional.
The subject of assay [11] is Pseudomonas aeruginosa. The experiment in a line: Antibacterial activity against Pseudomonas aeruginosa incubated for 24 hrs followed by plating onto tryptic soy agar medium and measured after 24 hrs. The class given is functional.
Assay [12] relates to Staphylococcus aureus. The experiment in a line: Antibacterial activity against methicillin-resistant Staphylococcus aureus N315 after 16 serial passages by two-fold serial dilution assay. The class given is functional, organism-based.

Converted amounts (≈) assume the structure as drawn. The source made the active and inactive calls. The rule behind the calls is not given here.

Usually MIC stands for the lowest concentration that inhibits growth of the organism. Low readings indicate greater potency, high ones weaker potency. Usually MBC stands for the lowest tested concentration that kills the bacteria rather than only halting them. Read a high MBC as weaker bactericidal potency. In the case of `CCCCn1c(-c2cc(-c3ccc(Cl)cc3)nc(N)n2)nc2ccccc21`, the MIC is 16 µg/mL (≈ 42.3 µM) against Staphylococcus aureus [1]; 32 µg/mL (≈ 84.7 µM) with Staphylococcus aureus [2]; 64 µg/mL (≈ 169 µM) in the assay with Bacillus subtilis; 64 µg/mL (≈ 169 µM) with Micrococcus luteus; 4 µg/mL (≈ 10.6 µM) against Bacillus; 128 µg/mL (≈ 339 µM) against Escherichia coli [3]. Further, the MIC stood at 64 µg/mL (≈ 169 µM) in the assay on Pseudomonas aeruginosa [4]; 8 µg/mL (≈ 21.2 µM) in the assay with Salmonella typhi; 64 µg/mL (≈ 169 µM) against Escherichia coli [5]; 256 µg/mL (≈ 677 µM) with Shigella dysenteriae; 64 µg/mL (≈ 169 µM) against Candida albicans; 4 µg/mL (≈ 10.6 µM) against Pichia norvegensis. Besides, the MIC with Cyberlindnera jadinii is 2 µg/mL (≈ 5.29 µM); in the assay on Saccharomyces cerevisiae, 128 µg/mL (≈ 339 µM); against Aspergillus flavus, 256 µg/mL (≈ 677 µM). Also, the Ratio with Staphylococcus aureus [6] is 1; with Staphylococcus aureus [7] it was 2; in the assay with Pseudomonas aeruginosa [8], 8. Moreover, the minimum bactericidal concentration (MBC) against Staphylococcus aureus [9] is 16 µg/mL (≈ 42.3 µM); against Staphylococcus aureus [10] it was 64 µg/mL (≈ 169 µM); against Pseudomonas aeruginosa [11] it was 512 µg/mL (≈ 1350 µM).
In the case of `CCn1cc(C(=O)O)c(=O)c2cc(F)c(N3CCNCC3)cc21` [NORFLOXACIN], the MIC with Staphylococcus aureus [1] turned out to be 8 µg/mL (≈ 25.1 µM); against Staphylococcus aureus [2], 1 µg/mL (≈ 3.13 µM); in the assay with Bacillus subtilis it was 2 µg/mL (≈ 6.26 µM); against Micrococcus luteus, 1 µg/mL (≈ 3.13 µM); against Bacillus, 4 µg/mL (≈ 12.5 µM); in the assay with Escherichia coli [3] it was 1 µg/mL (≈ 3.13 µM). Besides, the MIC worked out at 1 µg/mL (≈ 3.13 µM) against Pseudomonas aeruginosa [4], 1 µg/mL (≈ 3.13 µM) against Salmonella typhi, 1 µg/mL (≈ 3.13 µM) against Escherichia coli [5] and 16 µg/mL (≈ 50.1 µM) against Shigella dysenteriae. Also, in the assay on Staphylococcus aureus [12], the outcome was inactive.
For `Nc1nc(-c2ccc(F)cc2)cc(-c2nc3ccccc3[nH]2)n1`, the MIC was 2 µg/mL (≈ 6.55 µM) against Staphylococcus aureus [1]; 128 µg/mL (≈ 419 µM) against Staphylococcus aureus [2]; 2 µg/mL (≈ 6.55 µM) against Bacillus subtilis; 32 µg/mL (≈ 105 µM) in the assay with Micrococcus luteus; 128 µg/mL (≈ 419 µM) in the assay with Bacillus; 128 µg/mL (≈ 419 µM) in the assay on Escherichia coli [3]. Moreover, the MIC against Pseudomonas aeruginosa [4] was 16 µg/mL (≈ 52.4 µM); in the assay with Salmonella typhi, 8 µg/mL (≈ 26.2 µM); with Escherichia coli [5], 128 µg/mL (≈ 419 µM); in the assay with Shigella dysenteriae it was 16 µg/mL (≈ 52.4 µM); in the assay on Candida albicans, 8 µg/mL (≈ 26.2 µM); in the assay on Pichia norvegensis, 256 µg/mL (≈ 838 µM). For the same molecule, the MIC was found to be 128 µg/mL (≈ 419 µM) against Cyberlindnera jadinii, 64 µg/mL (≈ 210 µM) against Saccharomyces cerevisiae and 256 µg/mL (≈ 838 µM) in the assay with Aspergillus flavus. The Ratio is 1 in the assay on Staphylococcus aureus [6], 4 in the assay on Staphylococcus aureus [7] and 1 in the assay on Pseudomonas aeruginosa [8]. Besides, the MBC in the assay on Staphylococcus aureus [9] came to 2 µg/mL (≈ 6.55 µM); in the assay with Staphylococcus aureus [10], 512 µg/mL (≈ 1680 µM); in the assay on Pseudomonas aeruginosa [11], 16 µg/mL (≈ 52.4 µM).

Values taken from ChEMBL document CHEMBL4251572, “Novel aminopyrimidinyl benzimidazoles as potentially antimicrobial agents: Design, synthesis and biological evaluation” (Eur J Med Chem, 2018).
